{"source": "patent US20120202257A1", "about": "“LIGE-TYPE ENZYMES FOR BIOCONVERSION OF LIGNIN-DERIVED COMPOUNDS” (priority 2010, published 2012)", "molecules": {"B1": {"name": "ligE: S. paucimobilis beta-etherase, positive control polypeptide (protein)", "chain": "MARNNTITLYDLQLESGCTISPYVWRTKYALKHKGFDIDIVPGGFTGILERTGGRSERVPVIVDDGEWVLDSWVIAEYLDEKYPDRPMLFEGPTQKNLMKFLDNWLWSTAVGPWFRCYILDYHDLSLPQDRDYVRWSREQWFLGGQRLEDVQAGREDRLPLVPPTLEPFRRILAETKWLGGDQPNFADYSALAVFLWTASVARTPPLTEDDPLRDWLDRGFDLFDGLGRHPGMNPLFGLKLREGDPEPFVRQTGPAGAGGQALNKGPQTTKMPPRVAEKAD"}, "B2": {"name": "LigF2: N. aromaticivorans putative beta-etherase polypeptide, glutathione S-transferase-like protein (protein)", "chain": "MALKYYHAEPLANSLKSMVPLKEKGLAYESIYVDLHKFEQHQPWFTAINPEGQVPVLDHDGTIITHTTVINEYLEDAFPDAQPADAPLRPRDPVGAARMRYWNKFIDEHVMNYVSMHGWHRMVGVIARNIASGDFEKLLESIPLPDQRKKWATARSGFSEADLANATAKIEYALDKVEKQLGETKWLAGDTYTLADINFYSHCGAMVERMFPEMEVARRAPRLCEWRDRVAARPAVAEALKSEDRTAPGLRVWSGEVR"}, "B3": {"name": "LigF: S. paucimobilis beta-etherase, positive control polypeptide (protein)", "chain": "MTLKLYSFGPGANSLKPLATLYEKGLEFEQVFVDPSKFEQHSDWFKKINPRGQVPALWHDGKVVTESTVICEYLEDVFPESGNSLRPADPFKRAEMRVWTKWVDEYFCWCVSTIGWAFGIKAIAQKMSDEEFEEHINKNVPIPEQQLKWRRARNGFPQEMLDEEFRKVGVSVARLEETLSKQDYLVDTGYSLADICNFAIANGLQRPGGFFGDYVNQEKTPGLCAWLDRINARPAIKEMFEKSKREDLLKRQNEKVA"}, "B4": {"name": "ligE1: N. aromaticivorans putative beta-etherase polypeptide, glutathione S-transferase-like protein, expressed in E. coli (protein)", "chain": "MAANNTITFYDLALSTGATISPFVWATKYALKHKGFDLDVVPGGFTGILERTGGKTERLPAIVDDGEFVLDSWGIVEYLDAKYPDRPVLIPHESVAATLKALDNWFWNAAVGPWMFCFCQDYRDLSLPQDHEYVTHSREKMLGRKLEEVQAGREERLPKISAALEPLRAALAQHQWLGGSSPNYADYRIMGGILFTASVCKTPVLANDDPLRDWIERCLDLYGGLGRHPGLFPLFGLEQREGDPDLFNRAAGQGGIYKRNTGPESTRAETQRITEGMKK"}, "B5": {"name": "ABD26530.1: N. aromaticivorans putative beta-etherase polypeptide (protein)", "chain": "MVIPLGEDNTIMLKLYSFGPAANSMKPLLTVFEKGLDVEKHRLDPAKFEHHTDWFKAINPRGQVPALVDGDKVVTESTVICEYLEDEYPTEVALRPADSFGKAQMRIWTKWVDEYFCWCVSTIGWHRYVGNMVKSLSDAEFEEKVKAIPVIEQQVKWRRAREGFPQDMLDEEMRKIAYSVRKLDDHLADHEWLVPGQYTLADICNFAIANGMQFGFAELVNKQDTPHLVRWIEQINERPAVKQMFAQVELEKLGPRE"}, "B6": {"name": "ABD27309.1: N. aromaticivorans putative beta-etherase polypeptide (protein)", "chain": "MDEVSLYHWEPNANSGKPMLALMEKGVPFSSHYIDMLQFDQHKPEYLAINPQGTIPAMTHNGQVLTESTAIMEYVNDRFDGPDLMPADAQDRWRVRWWMKFMDQWLGPSFSMIGWSVFVGPMVRQRDPAELAAAIDRIPLPERRTAWRKAINGDFSESEMAESRRRVGLGIAKLEEELGKRPYVGSNQYSLADINIFNSTYSLPISQPDLAGKDRTPNIMRWLKRVYTREAVKKTWAMGKTDLAHRYGLIMAEIEG"}}, "key": {"Escherichia coli": {"tested_on": "Escherichia coli", "conditions": "cited from earlier work; for antimicrobial activity against Escherichia coli: each known; for antibacterial activity against Escherichia coli: benzaldehyde derivatives, each demonstrated"}, "Saccharomyces cerevisiae": {"tested_on": "Saccharomyces cerevisiae", "conditions": "cited from earlier work"}, "[1]": {"experiment": "in vitro biochemical assay for beta-etherase activity on fluorescent substrate MUAV (formation of 4MU), clarified E. coli cell extracts", "description": "This. example describes a method for gene expression in E. coli, as well as beta-etherase biochemical assays. Expression of known and putative beta-etherase genes was performed using 5 ml cultures of the recombinant E. coli strains described herein in Luria Broth medium by induction of gene expression using isopropylthiogalactoside (IPTG) to a final concentration of 0.1 mM. Following induction, and cell harvest, the cells were disrupted using either sonication or the BPER (Invitrogen) cell lysis system.\nIn vitro reactions were performed in a total volume of 200 ul and contained: 25 mM TrisHCl pH 7.5; 0.5 mM dithiothreitol; 1 mM glutathione; 0.05 mM or 0.1 mM MUAV; 10 ul of clarified cell extract used to initiate the reactions. Following incubation for 2.5 hours at room temperature, a 50 ul sample of the reactions was terminated using 150 uL of 300 mM glycine/NaOH buffer pH 9. The formation of 4 methylumbelliferone (4MU) upon hydrolysis of the aryl ether bond was monitored by the increase in fluorescence at λex=360 nm and λem=450 nm using a Spectramax UV/visible/fluorescent spectrophotometer.\nThe total protein concentrations of the cell lysates were determined using the BCA reagent system for protein quantification (Pierce). […]"}, "[2]": {"conditions": "E. coli cell extracts expressing the protein, reactions containing 0.1 mM MUAV substrate"}, "[3]": {"conditions": "MUAV substrate, LigF-type proteins"}}}
{"molecule": "O=Cc1ccc(CO)o1", "note": "[5-hydroxymethylfurfural]", "values": [{"measurement": "antimicrobial activity against Escherichia coli", "setting": "Escherichia coli", "value": "antimicrobial activity"}]}
{"molecule": "O=Cc1ccc(O)cc1O", "note": "[2,4-dihydroxybenzaldehyde]", "values": [{"measurement": "antibacterial activity against Escherichia coli", "setting": "Escherichia coli", "value": "antibacterial activity"}]}
{"molecule": "COc1ccc(O)c(C=O)c1", "note": "[2-hydroxy-5-methoxybenzaldehyde]", "values": [{"measurement": "antibacterial activity against Escherichia coli", "setting": "Escherichia coli", "value": "antibacterial activity"}]}
{"molecule": "COc1ccc(C=O)cc1OC", "note": "[Veratraldehyde]", "values": [{"measurement": "antifungal activities against the yeast Saccharomyces cerevisiae", "setting": "Saccharomyces cerevisiae", "value": "significant antifungal activities"}]}
{"molecule": "COc1cccc(C=O)c1O", "note": "[2-hydroxy-3-methoxybenzaldehyde]", "values": [{"measurement": "antibacterial activity against Escherichia coli", "setting": "Escherichia coli", "value": "antibacterial activity"}]}
{"molecule": "O=Cc1c(O)cc(O)cc1O", "note": "[2,4,6-trihydroxybenzaldehyde]", "values": [{"measurement": "antibacterial activity against Escherichia coli", "setting": "Escherichia coli", "value": "antibacterial activity"}]}
{"molecule": "O=Cc1cc(O)ccc1O", "note": "[2,5-dihydroxybenzaldehyde]", "values": [{"measurement": "antibacterial activity against Escherichia coli", "setting": "Escherichia coli", "value": "antibacterial activity"}]}
{"molecule": "COc1cc(O)cc(OC)c1C=O", "note": "[4-hydroxy-2,6-dimethoxybenzaldehyde]", "values": [{"measurement": "antibacterial activity against Escherichia coli", "setting": "Escherichia coli", "value": "antibacterial activity"}]}
{"molecule": "O=Cc1ccc(O)cc1", "note": "[4-hydroxybenzaldehyde]", "values": [{"measurement": "antimicrobial activity against Escherichia coli", "setting": "Escherichia coli", "value": "antimicrobial activity"}]}
{"molecule": "O=C(O)C=Cc1ccccc1", "note": "[cinnamic acid]", "values": [{"measurement": "antifungal activities against the yeast Saccharomyces cerevisiae", "setting": "Saccharomyces cerevisiae", "value": "significant antifungal activities"}]}
{"molecule": "COc1cc(CCC(C)=O)ccc1O", "note": "[vanillylacetone]", "values": [{"measurement": "antifungal activities against the yeast Saccharomyces cerevisiae", "setting": "Saccharomyces cerevisiae", "value": "significant antifungal activities"}]}
{"molecule": "O=Cc1ccccc1O", "note": "[2-hydroxybenzaldehyde]", "values": [{"measurement": "antibacterial activity against Escherichia coli", "setting": "Escherichia coli", "value": "antibacterial activity"}]}
{"molecule": "O=C(O)/C=C/c1ccccc1O", "note": "[o-coumaric acid]", "values": [{"measurement": "antifungal activities against the yeast Saccharomyces cerevisiae", "setting": "Saccharomyces cerevisiae", "value": "significant antifungal activities"}]}
{"molecule": "O=Cc1ccco1", "note": "[furfural]", "values": [{"measurement": "antimicrobial activity against Escherichia coli", "setting": "Escherichia coli", "value": "antimicrobial activity"}]}
{"molecule": "O=C(O)/C=C/c1ccc(O)cc1", "note": "[p-coumaric acid]", "values": [{"measurement": "antifungal activities against the yeast Saccharomyces cerevisiae", "setting": "Saccharomyces cerevisiae", "value": "significant antifungal activities"}]}
{"molecule": "O=Cc1cccc(O)c1O", "note": "[2,3-dihydroxybenzaldehyde]", "values": [{"measurement": "antibacterial activity against Escherichia coli", "setting": "Escherichia coli", "value": "antibacterial activity"}]}
{"molecule": "O=Cc1ccc(O)c(O)c1O", "note": "[2,3,4-trihydroxybenzaldehyde]", "values": [{"measurement": "antibacterial activity against Escherichia coli", "setting": "Escherichia coli", "value": "antibacterial activity"}]}
{"molecule": "O=C(O)/C=C/c1cccc(O)c1", "note": "[m-coumaric acid]", "values": [{"measurement": "antifungal activities against the yeast Saccharomyces cerevisiae", "setting": "Saccharomyces cerevisiae", "value": "significant antifungal activities"}]}
{"molecule": "COc1cc(C=O)ccc1O", "note": "[vanillin]", "values": [{"measurement": "antimicrobial activity against Escherichia coli", "setting": "Escherichia coli", "value": "antimicrobial activity"}]}
{"molecule": "COc1cc(C=O)cc(OC)c1O", "note": "[syringaldehyde]", "values": [{"measurement": "antimicrobial activity against Escherichia coli", "setting": "Escherichia coli", "value": "antimicrobial activity"}]}
{"molecule": "COc1cc(C(=O)O)ccc1O", "note": "[vanillic acid]", "values": [{"measurement": "antifungal activities against the yeast Saccharomyces cerevisiae", "setting": "Saccharomyces cerevisiae", "value": "significant antifungal activities"}]}
{"molecule": "B1", "values": [{"measurement": "total activity (beta-etherase)", "setting": "[1]; [2]", "value": 7, "unit": "rfu/ug"}]}
{"molecule": "B2", "values": [{"measurement": "beta-etherase activity (in words)", "setting": "[1]; MUAV substrate", "value": "beta-etherase activity"}, {"measurement": "total activity (beta-etherase)", "setting": "[1]; [3]", "value": 1206, "unit": "rfu/ug"}]}
{"molecule": "B3", "values": [{"measurement": "total activity (beta-etherase)", "setting": "[1]; [3]", "value": 558, "unit": "rfu/ug"}]}
{"molecule": "B4", "values": [{"measurement": "total activity (beta-etherase)", "setting": "[1]; [2]", "value": 529, "unit": "rfu/ug"}, {"measurement": "beta-etherase activity (in words)", "setting": "[1]; MUAV substrate", "value": "much elevated beta-etherase activity"}, {"measurement": "beta-etherase activity (in words)", "setting": "[1]; MUAV substrate, listed as ABD26841.1", "value": "beta-etherase activity"}]}
{"molecule": "B5", "values": [{"measurement": "beta-etherase activity (in words)", "setting": "[1]; MUAV substrate", "value": "beta-etherase activity"}]}
{"molecule": "B6", "values": [{"measurement": "beta-etherase activity (in words)", "setting": "[1]; MUAV substrate", "value": "beta-etherase activity"}]}
